Patent US20070293553A1, “Diphenylurea Derivatives Useful As Potassium Channel Activators” (priority 2004, published 2007)

melting point [°C] | SMILES
253 to 254 | O=C(Nc1cccc(C(F)(F)F)c1)Nc1ccc(-c2ccc(Cl)cc2)cc1-c1nnn[nH]1 [Compound 3-2, N-(3-Trifluoromethyl-phenyl)-N′-[4′-chloro-3-(1H-tetrazol-5-yl)-biphenyl-4-yl]-urea]
242 to 243 | O=C(Nc1ccc(Cl)c(C(F)(F)F)c1)Nc1ccc(-c2ccc(Cl)cc2)cc1-c1nnn[nH]1 [Compound 3-3, N-(4-Chloro-3-trifluoromethyl-phenyl)-N′-[4′-chloro-3-(1H-tetrazol-5-yl)-biphenyl-4-yl]-urea]
231 to 234 | O=C(Nc1cc(Cl)cc(Cl)c1)Nc1ccc(-c2ccc(Cl)cc2)cc1-c1nnn[nH]1 [Compound 3-4, N-(3,5-Dichloro-phenyl)-N′-[4′-chloro-3-(1H-tetrazol-5-yl)-biphenyl-4-yl]-urea]
250 to 251 | O=C(Nc1cc(F)cc(F)c1)Nc1ccc(-c2ccc(Cl)cc2)cc1-c1nnn[nH]1 [Compound 3-5, N-(3,5-Difluoro-phenyl)-N′-[4′-chloro-3-(1H-tetrazol-5-yl)-biphenyl-4-yl]-urea]
226 to 230 | O=C(Nc1cc(Cl)cc(Cl)c1)Nc1ccc(-c2ccc(C(F)(F)F)cc2)cc1-c1nnn[nH]1 [Compound 3-6, N-(3,5-Dichloro-phenyl)-N′-[3-(1H-tetrazol-5-yl)-4′-trifluoromethyl-biphenyl-4-yl]-urea]
245 to 247 | O=C(Nc1cc(F)cc(F)c1)Nc1ccc(-c2ccc(C(F)(F)F)cc2)cc1-c1nnn[nH]1 [Compound 3-7, N-(3,5-Difluoro-phenyl)-N′-[3-(1H-tetrazol-5-yl)-4′-trifluoromethyl-biphenyl-4-yl]-urea]
256 to 258 | O=C(Nc1cc(-c2ccc(F)cc2)cc(-c2nnn[nH]2)c1)Nc1cccc(C(F)(F)F)c1 [Compound 3-8, N-(3-Trifluoromethyl-phenyl)-N′-[4′-fluoro-3-(1H-tetrazol-5-yl)-biphenyl-5-yl]-urea]
247 to 249 | O=C(Nc1ccc(Cl)c(C(F)(F)F)c1)Nc1ccc(-c2ccc(F)cc2)cc1-c1nnn[nH]1 [Compound 3-9, N-(4-Chloro-3-trifluoromethyl-phenyl)-N′-[4′-fluoro-3-(1H-tetrazol-5-yl)-biphenyl-4-yl]-urea]
241 to 243 | O=C(Nc1cc(Cl)cc(Cl)c1)Nc1ccc(-c2ccc(F)cc2)cc1-c1nnn[nH]1 [Compound 3-10, N-(3,5-Dichloro-phenyl)-N′-[4′-fluoro-3-(1H-tetrazol-5-yl)-biphenyl-4-yl]-urea]
255 to 256 | O=C(Nc1cc(F)cc(F)c1)Nc1ccc(-c2ccc(F)cc2)c(-c2nnn[nH]2)c1 [Compound 3-11, N-(3,5-Difluoro-phenyl)-N′-[4′-fluoro-2-(1H-tetrazol-5-yl)-biphenyl-4-yl]-urea]
247 to 249 | O=C(Nc1ccc(F)c(C(F)(F)F)c1)Nc1ccc(-c2ccc(C(F)(F)F)cc2)cc1-c1nnn[nH]1 [Compound 3-12, N-(4-Fluoro-3-trifluoromethyl-phenyl)-N′-[3-(1H-tetrazol-5-yl)-4′-trifluoromethyl-biphenyl-4-yl]-urea]
246 to 248 | O=C(Nc1cc(C(F)(F)F)cc(C(F)(F)F)c1)Nc1ccc(-c2ccc(C(F)(F)F)cc2)cc1-c1nnn[nH]1 [Compound 3-13, N-(3,5-Bis-trifluoromethyl-phenyl)-N′-[3-(1H-tetrazol-5-yl)-4′-trifluoromethyl-biphenyl-4-yl]-urea]
230 to 233 | O=C(Nc1cc(C(F)(F)F)cc(C(F)(F)F)c1)Nc1ccc(-c2ccc(Cl)cc2)cc1-c1nnn[nH]1 [Compound 3-14, N-(3,5-Bis-trifluoromethyl-phenyl)-N′-[4′-chloro-3-(1H-tetrazol-5-yl)-biphenyl-4-yl]-urea]
243 to 245 | O=C(Nc1ccc(F)c(C(F)(F)F)c1)Nc1ccc(-c2ccc(Cl)cc2)cc1-c1nnn[nH]1 [Compound 3-15, N-(4-Fluoro-3-trifluoromethyl-phenyl)-N′-[4′-chloro-3-(1H-tetrazol-5-yl)-biphenyl-4-yl]-urea]
251 to 253 | O=C(Nc1cc(C(F)(F)F)cc(C(F)(F)F)c1)Nc1ccc(-c2ccc(F)cc2)cc1-c1nnn[nH]1 [Compound 3-16, N-(3,5-Bis-trifluoromethyl-phenyl)-N′-[4′-fluoro-3-(1H-tetrazol-5-yl)-biphenyl-4-yl]-urea]
253 to 254 | O=C(Nc1ccc(F)c(C(F)(F)F)c1)Nc1ccc(-c2ccc(F)cc2)cc1-c1nnn[nH]1 [Compound 3-17, N-(4-Fluoro-3-trifluoromethyl-phenyl)-N′-[4′-fluoro-3-(1H-tetrazol-5-yl)-biphenyl-4-yl]-urea]
240 to 243 | O=C(Nc1ccc(-c2ccc(C(F)(F)F)cc2)cc1-c1nnn[nH]1)Nc1ccccc1C(F)(F)F [Compound 3-18, N-(2-Trifluoromethyl-phenyl)-N′-[3-(1H-tetrazol-5-yl)-4′-trifluoromethyl-biphenyl-4-yl]-urea]
256 to 258 | O=C(Nc1ccc(-c2ccc(F)cc2)cc1-c1nnn[nH]1)Nc1ccccc1C(F)(F)F [Compound 3-19, N-(2-Trifluoromethyl-phenyl)-N′-[4′-fluoro-3-(1H-tetrazol-5-yl)-biphenyl-4-yl]-urea]
242 to 243 | O=C(Nc1ccccc1Br)Nc1ccc(-c2ccc(C(F)(F)F)cc2)cc1-c1nnn[nH]1 [Compound 3-20, N-(2-Bromo-phenyl)-N′-[3-(1H-tetrazol-5-yl)-4′-trifluoromethyl-biphenyl-4-yl]-urea]
290 to 292 | O=C(Nc1ccc(-c2ccc(Cl)cc2)cc1-c1nnn[nH]1)Nc1ccccc1C(F)(F)F [Compound 3-21, N-(2-Trifluoromethyl-phenyl)-N′-[4′-chloro-3-(1H-tetrazol-5-yl)-biphenyl-4-yl]-urea]
255 to 256 | O=C(Nc1ccccc1Br)Nc1ccc(-c2ccc(Cl)cc2)cc1-c1nnn[nH]1 [Compound 3-22, N-(2-Bromo-phenyl)-N′-[4′-chloro-3-(1H-tetrazol-5-yl)-biphenyl-4-yl]-urea]
256 to 258 | O=C(Nc1ccccc1Br)Nc1ccc(-c2ccc(F)cc2)cc1-c1nnn[nH]1 [Compound 3-23, N-(2-Bromo-phenyl)-N′-[4′-fluoro-3-(1H-tetrazol-5-yl)-biphenyl-4-yl]-urea]
251 to 252 | O=C(Nc1ccccc1F)Nc1ccc(-c2ccc(C(F)(F)F)cc2)cc1-c1nnn[nH]1 [Compound 3-24, N-(2-Fluoro-phenyl)-N′-[3-(1H-tetrazol-5-yl)-4′-trifluoromethyl-biphenyl-4-yl]-urea]
257 to 259 | O=C(Nc1ccccc1F)Nc1ccc(-c2ccc(Cl)cc2)cc1-c1nnn[nH]1 [Compound 3-25, N-(2-Fluoro-phenyl)-N′-[4′-chloro-3-(1H-tetrazol-5-yl)-biphenyl-4-yl]-urea]
263 to 264 | O=C(Nc1ccccc1F)Nc1ccc(-c2ccc(F)cc2)cc1-c1nnn[nH]1 [Compound 3-26, N-(2-Fluoro-phenyl)-N′-[4′-fluoro-3-(1H-tetrazol-5-yl)-biphenyl-4-yl]-urea]
260 to 262 | Cc1ccc(-c2ccc(NC(=O)Nc3ccccc3F)c(-c3nnn[nH]3)c2)cc1 [Compound 3-27, N-(2-Fluoro-phenyl)-N′-[4′-methyl-3-(1H-tetrazol-5-yl)-biphenyl-4-yl]-urea]
